In article PMC5864073, “A D-enantiomer of the antimicrobial peptide GL13K evades antimicrobial resistance in the Gram positive bacteria Enterococcus faecalis and Streptococcus gordonii” (PLoS ONE, 2018):
Where a SMILES comes first, the peptide text is derived from it. [ ]: non-standard residue; d: D form.

Legend:
[1] = system: wild-type E. faecalis; test: Bactericidal activity in sodium phosphate buffer; format: cell-based, Enterococcus faecalis; settings: 10^8 CFU/ml wild-type E. faecalis, no energy source, 10 mM sodium-phosphate pH 7.4, 2 h, 37°C, spotted on THA; D N = 4, L N = 3
Description: These assays were performed according to our established protocol with some modifications. Cells were washed three times in 0.9% NaCl and five μl of washed cells (10^9 CFU/ml) were added to the peptides diluted 2-fold (128 to 4 mg/L) in 45 μl of 10 mM sodium-phosphate, pH 7.4. The samples were incubated at 37°C for 2 h and 10 μl were then spotted on THA plates to assess bactericidal activity.

[2] = system: conditioned supernatant of protease-deficient E. faecalis (TX5128); test: Proteolysis of peptide by conditioned culture supernatant (P. aeruginosa Xen41 bioassay); format: in vitro ADME, Enterococcus faecalis; settings: conditioned sterile-filtered supernatant of protease-deficient E. faecalis TX5128, peptide 32 mg/L, 2 h, 37°C; bioluminescence read-out after 15 min; three independent experiments
Description: (§1) To test proteolytic processing of GL13K peptides, overnight bacterial cultures were centrifuged (5 min, 13,000 g) and the conditioned supernatants were sterile-filtered (0.22 μm, Corning). Filtered supernatant (16.8 μl) was incubated with 3.2 μl (3.2 μg) peptide at 37°C for 2 h to allow bacterial proteases in the supernatant to process the peptide. To determine residual peptide activity, 70 μl of 10 mM sodium phosphate buffer, pH 7.4 was added to each sample and then supplemented with 10 μl (10^8 CFU) of bioluminescent Pseudomonas aeruginosa Xen41 (Caliper Lifesciences; now Perkin Elmer, MA) that had been washed three times in 0.9% NaCl (final maximal peptide concentration 32 mg/L). Viability of the indicator bacteria was determined after 15 min incubation at 37°C by determining bioluminescence in a Synergy HT plate reader. The luminescence detected in the absence of added peptide was used as a measure of 100% proteolysis.
(§2) Fig 1 Relative proteolysis of GL13K peptides. (A): Wild-type (OG1RF) or the protease-negative strain (TX5128) of E. faecalis was cultured on THA containing 3% gelatin. Gelatinase activity was visualized as a turbid halo around the bacterial colonies; (B): L-GL13K (L) or D-GL13K (D) (32 mg/L) was incubated with conditioned supernatant of wild-type (OG1RF) or the protease-negative strain (TX5128) of E. faecalis for 2 h. Residual peptide activity was determined by adding bioluminescent P. aeruginosa Xen41 to the mixture. Bioluminescence from surviving bacteria was used as a measure of proteolytic degradation of each peptide and expressed relative to bacterial bioluminescence in the absence of peptides (equivalent to 100% proteolysis). Data are shown as mean ± SEM from three independent experiments and were analyzed by paired t-test for each strain. n.s., not significant.

[3] = system: E. faecalis OG1RF; test: Triton X-100 induced bacterial autolysis assay; format: cell-based, Enterococcus faecalis; settings: PBS with 0.05% Triton X-100, peptide 100 mg/L, OD600 for 180 min
Description: (§3) The lysis assay followed an established protocol for bacterial autolysis with minor modifications. Exponentially growing cells were washed twice in PBS then washed once in ice-cold dH2O. The bacteria were incubated in PBS with 0.05% Triton X-100 and peptides at a concentration of 100 mg/L. OD600 was monitored spectrophotometrically for 180 min. In some experiments, the cells were incubated with the peptides for 2h in PBS+0.05% Triton X-100 and then cultured on THA to enumerate surviving cells.
(§4) Fig 2 Effect of GL13K peptides on Triton X-100 induced autolysis. E. faecalis OG1RF (A) or the autolysis-deficient strain TX5128 (B) were incubated in PBS with 0.05% Triton X-100 in the absence of peptide (control) or in the presence of 100 mg/L of L-GL13K or D-GL13K (D). The OD600 was recorded for 180 min and expressed as a percent of starting OD600 of the control sample. (C): Bactericidal activity of GL13K peptides in PBS+0.05% Triton X-100. E. faecalis OG1RF were incubated with 0.05% Triton X-100 in the absence of peptide (Ctrl) or with L-GL13K or D-GL13K for 2h. Surviving CFU were enumerated and are shown as mean ± SEM (N = 5). Peptide treated samples were compared to the untreated control by Kruskal-Wallis test with Dunn’s multiple comparison post-test. n.s., not significant.

[4] = system: E. faecalis OG1RF; test: Bactericidal activity in PBS+0.05% Triton X-100; format: cell-based, Enterococcus faecalis; settings: PBS+0.05% Triton X-100, peptide 100 mg/L, 2 h, CFU on THA, N = 5
Description: as §3, §4

[5] = system: E. faecalis OG1RF biofilm; test: Biofilm assay (Calgary device); format: cell-based, Enterococcus faecalis; settings: 24 h biofilm of OG1RF, peptide 100 mg/L, 4 h, CFU enumerated
Description: (§5) E. faecalis OG1RF, TX5427 or V583 were cultured in a Calgary device for 24h in THB. Biofilms were treated with peptides (100 mg/L) for 4h and surviving cells were sonicated and plated on THA for enumeration of CFUs.
(§6) Fig 3 Effect of GL13K peptides on biofilms of E. faecalis. Twenty-four hour biofilms of OG1RF; OG1RF dltA or V583 were treated with 100 mg/L of L-GL13K (L) or D-GL13K (D). Surviving CFU were enumerated from each peg and expressed relative to the mean CFU recovered from pegs of wild-type cells treated with buffer alone (OG1RF—C). Data from 2–4 experiments are expressed as mean ± SEM (N = 6–13). V583 was only treated with D-GL13K.

[6] = system: E. faecalis OG1RF dltA (TX5427) biofilm; test: Biofilm assay (Calgary device); format: cell-based, Enterococcus faecalis; settings: 24 h biofilm of OG1RF dltA, peptide 100 mg/L, 4 h, CFU relative to the wild-type biofilm
Description: as §5, §6

[7] = system: vancomycin-resistant E. faecalis V583 biofilm; test: Biofilm assay (Calgary device); format: cell-based, Enterococcus faecalis; settings: 24 h biofilm of V583, peptide 100 mg/L, 4 h, CFU enumerated
Description: as §5, §6

[8] = system: E. faecalis dltA mutant (TX5427); test: Selection for peptide resistance, serial MIC assays; format: cell-based, Enterococcus faecalis; settings: serial passage at 0.5 x MIC, L-GL13K after two rounds, D-GL13K after seven rounds, three experiments
Description: (§7) To investigate potential resistance development against the GL13K peptides, dilutions of the peptides were prepared and incubated as described for the MIC assay. The next day (day 0), the MIC was recorded and the culture in the well with the highest peptide concentration that allowed growth (i.e 0.5 x MIC) was diluted 1:100 and used as an inoculum for the next round of selection in a new MIC assay and so forth until a stable plateau of resistance was reached.
(§8) Fig 4 Development of resistance in E. faecalis. MICs for L-GL13K (circles) and D-GL13K (squares) were recorded on consecutive days using E. faecalis OG1RF (wild-type) (open symbols) (D-enantiomer only) and dltA (closed symbols). The MIC for each day is expressed relative to the starting MIC (day 0). Data from three experiments are shown as mean ± SEM.

[9] = system: wild-type E. faecalis (OG1RF); test: as above; format: cell-based, Enterococcus faecalis; settings: serial passage at 0.5 x MIC
Description: as §7, §8

[10] = system: S. gordonii DL1 (wild-type); test: as above; format: cell-based, Streptococcus gordonii; settings: repeated treatment with sub-inhibitory concentrations, 2–3 experiments
Description: as §7
as §8, with “6” for “4”, “S. gordonii.” for “E. faecalis.”, “S. gordonii DL1” for “E. faecalis OG1RF”, “2–3” for “three”, “range.” for “SEM.”

[11] = system: S. gordonii dltA mutant; test: as above; format: cell-based, Streptococcus gordonii; settings: repeated treatment with sub-inhibitory concentrations, 2–3 experiments
Description: as §7
as §8, with “6” for “4”, “S. gordonii.” for “E. faecalis.”, “S. gordonii DL1” for “E. faecalis OG1RF”, “2–3” for “three”, “range.” for “SEM.”

[12] = system: E. faecalis OG1RF (wild-type); test: Minimal inhibitory concentration, broth dilution; format: cell-based, Enterococcus faecalis; design: key to MIC (mg/L): >: Mean MIC is above the tested concentration range (this value was set at 200 mg/L for data analysis); settings: THB, 20 h, 37°C
Description: (§9) The minimal inhibitory concentration (MIC) assays were performed essentially as described for cationic AMPs, but using streptococcal growth-friendly THB without the addition of blood or serum components. A working stock of 1-5x10^5 CFU/ml in 90 or 100 μl THB was added to 10 or 20 μl of a 2-fold serial peptide dilution in 0.01% acetic acid and incubated for 20 h at 37°C in 96-well polypropylene plates. The OD at 600 nm (OD600) was determined in a Synergy HT plate reader (BioTek, Winooski, VT). Control wells for growth without peptide and growth medium without bacteria were included. Bacterial cell numbers in the inoculum were verified by colony count.

[13] = system: E. faecalis OG1RF dltA (TX5427); test: Minimal inhibitory concentration, broth dilution; format: cell-based, Enterococcus faecalis; settings: THB, 20 h, 37°C, OD600, mean ± SEM
Description: as §9

[14] = system: E. faecalis OG1RF ebsG; test: Minimal inhibitory concentration, broth dilution; format: cell-based, Enterococcus faecalis; design: key: >: Mean MIC is above the tested concentration range (this value was set at 200 mg/L for data analysis); settings: THB, 20 h, 37°C, symbol
Description: as §9

[15] = system: E. faecalis OG1RF::pMSP7551+nisin; test: Minimal inhibitory concentration, broth dilution; format: cell-based, Enterococcus faecalis; design: key: >: Mean MIC is above the tested concentration range (this value was set at 200 mg/L for data analysis); settings: E. faecalis OG1RF::pMSP7551+nisin (induced); THB, 20 h, 37°C; symbol
Description: as §9

[16] = system: E. faecalis OG1RF::pMSP7551; test: Minimal inhibitory concentration, broth dilution; format: cell-based, Enterococcus faecalis; design: key: >: Mean MIC is above the tested concentration range (this value was set at 200 mg/L for data analysis); settings: E. faecalis OG1RF::pMSP7551 (un-induced); THB, 20 h, 37°C; symbol
Description: as §9

[17] = system: E. faecalis TX5128 (gelE-, SprE-); test: Minimal inhibitory concentration, broth dilution; format: cell-based, Enterococcus faecalis; design: key: >: Mean MIC is above the tested concentration range (this value was set at 200 mg/L for data analysis); settings: THB, 20 h, 37°C
Description: as §9

[18] = system: vancomycin-resistant E. faecalis V583; test: Minimal inhibitory concentration, broth dilution; format: cell-based, Enterococcus faecalis; design: key: >: Mean MIC is above the tested concentration range (this value was set at 200 mg/L for data analysis); settings: THB, 20 h, 37°C, symbol
Description: as §9

[19] = system: S. gordonii DL1 (wild-type); test: Minimal inhibitory concentration, broth dilution; format: cell-based, Streptococcus gordonii; design: key: >: Mean MIC is above the tested concentration range (this value was set at 200 mg/L for data analysis); settings: THB, 20 h, 37°C
Description: as §9

[20] = system: S. gordonii DL1 atlS; test: Minimal inhibitory concentration, broth dilution; format: cell-based, Streptococcus gordonii; settings: THB, 20 h, 37°C, OD600, mean ± SEM
Description: as §9

[21] = system: S. gordonii DL1 dltA; test: Minimal inhibitory concentration, broth dilution; format: cell-based, Streptococcus gordonii; settings: THB, 20 h, 37°C, OD600, mean ± SEM
Description: as §9

[22] = system: conditioned supernatant of wild-type E. faecalis (OG1RF); test: Proteolysis of peptide by conditioned culture supernatant (P. aeruginosa Xen41 bioassay); format: in vitro ADME, Enterococcus faecalis; settings: conditioned sterile-filtered supernatant of E. faecalis OG1RF, peptide 32 mg/L, 2 h, 37°C; bioluminescence read-out after 15 min; three independent experiments
Description: as §1, §2

SMILES	Peptide concentration required for complete killing [1] [mg/L]	Proteolysis of peptide (loss of activity against bioluminescent P. aeruginosa Xen41) [2]	Effect on Triton X-100 induced autolysis (OD600) [3]	Reduction of viable cells under autolysis conditions [4]	Reduction of viable biofilm CFU [5]	Reduction of viable biofilm CFU [6]	Increase of MIC relative to starting MIC (day 0) [8] [fold]	Increase of MIC relative to starting MIC (day 0) [10]	Increase of MIC relative to starting MIC (day 0) [11]	also measured
CC[C@@H](C)[C@@H](NC(=O)[C@@H](CCCCN)NC(=O)CN)C(=O)N[C@@H](C(=O)N[C@H](CCCCN)C(=O)N[C@H](CC(C)C)C(=O)N[C@H](CCCCN)C(=O)N[C@H](C)C(=O)N[C@H](CO)C(=O)N[C@H](CC(C)C)C(=O)N[C@H](CCCCN)C(=O)N[C@H](CC(C)C)C(=O)N[C@H](CC(C)C)C(N)=O)[C@H](C)CC [D-GL13K] (H-G[dK][dI][dI][dK][dL][dK][dA][dS][dL][dK][dL][dL]-NH2; N-terminus and C-terminus assumed)	15 ± 10	did not show significant proteolysis	no autolysis was seen	3 log10	3 log10	highly effective	2	little change of the MIC	little change of the MIC	Reduction of viable biofilm CFU [7]: 3 log10; Increase of MIC relative to starting MIC (day 0) [9]: did not substantially increase the MIC
CC[C@H](C)[C@H](NC(=O)[C@H](CCCCN)NC(=O)CN)C(=O)N[C@H](C(=O)N[C@@H](CCCCN)C(=O)N[C@@H](CC(C)C)C(=O)N[C@@H](CCCCN)C(=O)N[C@@H](C)C(=O)N[C@@H](CO)C(=O)N[C@@H](CC(C)C)C(=O)N[C@@H](CCCCN)C(=O)N[C@@H](CC(C)C)C(=O)N[C@@H](CC(C)C)C(N)=O)[C@@H](C)CC [L-GL13K, Gly-Lys-Ile-Ile-Lys-Leu-Lys-Ala-Ser-Leu-Lys-Leu-Leu-NH2] (H-GKIIKLKASLKLL-NH2; N-terminus assumed)	48 ± 23	did not show significant proteolysis	somewhat reduced autolysis	small, yet non-significant, reduction of cell numbers	ineffective	three orders of magnitude	8	6 fold	16 fold	MIC ([12]; 1-5x10^5 CFU/ml, OD600, mean ± SEM): > 512 µg/mL; MIC (mg/L) ([12]; OD600, symbol): >; MIC [13]: 70 ± 17 µg/mL; MIC (mg/L) [14]: >; MIC (mg/L) [15]: >; MIC (mg/L) [16]: >; MIC (mg/L) ([17]; OD600, mean ± SEM): did not inhibit growth; MIC (mg/L) ([17]; symbol): >; MIC (mg/L) [18]: >; MIC (mg/L) ([19]; OD600, mean ± SEM): resistant; MIC (mg/L) ([19]; symbol): >; MIC [20]: 63 ± 8 µg/mL; MIC [21]: 11 ± 3 µg/mL; Proteolysis of peptide (loss of activity against bioluminescent P. aeruginosa Xen41) [22]: almost complete proteolysis
